Reference: article PMC10313047, “During heat stress in Myxococcus xanthus, the CdbS PilZ domain protein, in concert with two PilZ-DnaK chaperones, perturbs chromosome organization and accelerates cell death” (PLOS Genetics, 2023)

Target: T1, His6-CdbS (Myxococcus xanthus, UniProt Q1D4C1)
T1 construct: gene MXAN_4328; full-length stand-alone PilZ protein (PilZ domain residues 7-82), N-terminal His6 tag (pET28a, pMS007), made in E. coli Arctic Express (DE3) RP
Assay: bio-layer interferometry, streptavidin sensor, equilibrium one-site fit
Format: binding
Conditions: labelled compound (biotinylated c-di-GMP immobilised on sensor); 50 mM Tris-HCl pH 7, 150 mM NaCl, 10% glycerol, 0.02% Tween-20

T1 sequence (Q1D4C1 entry or part of it): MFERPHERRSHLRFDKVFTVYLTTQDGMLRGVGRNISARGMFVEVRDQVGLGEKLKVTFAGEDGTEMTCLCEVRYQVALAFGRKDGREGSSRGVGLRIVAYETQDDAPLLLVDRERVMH

`Nc1nc2c(ncn2[C@@H]2O[C@@H]3COP(=O)(O)O[C@H]4[C@@H](O)[C@H](n5cnc6c(=O)[nH]c(N)nc65)O[C@@H]4COP(=O)(O)O[C@H]3[C@H]2O)c(=O)[nH]1` [c-di-GMP] was tested, and the Kd was “His6-CdbS^R9A did not detectably bind c-di-GMP”.
